Assay results as given in PubChem BioAssay (NCI).
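GI50: concentration for 50% inhibition of growth. TGI marks complete inhibition of growth.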

Experiments:
Experiment in all cases: inhibition of tumour cell growth, NCI panel, 384-well format
786-0 renal = tested on: 786-0 renal
A498 renal = tested on: A498 renal
A549 NSCLC = tested on: A549 NSCLC
ACHN renal = tested on: ACHN renal
BT-549 breast = tested on: BT-549 breast
CAKI-1 renal = tested on: CAKI-1 renal
CCRF-CEM leukemia = tested on: CCRF-CEM leukemia
COLO 205 colon = tested on: COLO 205 colon
DU-145 prostate = tested on: DU-145 prostate
EKVX NSCLC = tested on: EKVX NSCLC
HCC-2998 colon = tested on: HCC-2998 colon
HCT-116 colon = tested on: HCT-116 colon
HCT-15 colon = tested on: HCT-15 colon
HL-60(TB) leukemia = tested on: HL-60(TB) leukemia
HOP-62 NSCLC = tested on: HOP-62 NSCLC
HOP-92 NSCLC = tested on: HOP-92 NSCLC
HS 578T breast = tested on: HS 578T breast
HT29 colon = tested on: HT29 colon
IGROV1 ovarian = tested on: IGROV1 ovarian
K-562 leukemia = tested on: K-562 leukemia
KM12 colon = tested on: KM12 colon
LOX IMVI melanoma = tested on: LOX IMVI melanoma
M14 melanoma = tested on: M14 melanoma
MALME-3M melanoma = tested on: MALME-3M melanoma
MCF7 breast = tested on: MCF7 breast
MDA-MB-231 breast = tested on: MDA-MB-231 breast
MDA-MB-435 melanoma = tested on: MDA-MB-435 melanoma
MDA-MB-468 breast = tested on: MDA-MB-468 breast
MOLT-4 leukemia = tested on: MOLT-4 leukemia
NCI-H226 lung = tested on: NCI-H226 lung
NCI-H23 lung = tested on: NCI-H23 lung
NCI-H322M lung = tested on: NCI-H322M lung
NCI-H460 NSCLC = tested on: NCI-H460 NSCLC
NCI-H522 lung = tested on: NCI-H522 lung
NCI/ADR-RES ovarian = tested on: NCI/ADR-RES ovarian
OVCAR-3 ovarian = tested on: OVCAR-3 ovarian
OVCAR-4 ovarian = tested on: OVCAR-4 ovarian
OVCAR-5 ovarian = tested on: OVCAR-5 ovarian
OVCAR-8 ovarian = tested on: OVCAR-8 ovarian
PC-3 prostate = tested on: PC-3 prostate
RPMI-8226 leukemia = tested on: RPMI-8226 leukemia
RXF 393 renal = tested on: RXF 393 renal
SF-268 CNS = tested on: SF-268 CNS
SF-295 CNS = tested on: SF-295 CNS
SF-539 CNS = tested on: SF-539 CNS
SK-MEL-28 melanoma = tested on: SK-MEL-28 melanoma
SK-MEL-5 melanoma = tested on: SK-MEL-5 melanoma
SK-OV-3 ovarian = tested on: SK-OV-3 ovarian
SN12C renal = tested on: SN12C renal
SNB-19 CNS = tested on: SNB-19 CNS
SNB-75 CNS = tested on: SNB-75 CNS
SW-620 colon = tested on: SW-620 colon
T-47D breast = tested on: T-47D breast
TK-10 renal = tested on: TK-10 renal
U251 glioblastoma = tested on: U251 glioblastoma
UACC-257 melanoma = tested on: UACC-257 melanoma
UACC-62 melanoma = tested on: UACC-62 melanoma
UO-31 renal = tested on: UO-31 renal

Q: For `CCN(CC)CCCCNc1ncc2cc(-c3cc(OC)cc(OC)c3)c(NC(=O)NC(C)(C)C)nc2n1`, which GI50 ([…]-0 renal) is on record?
A: 3.05 µM

Q: And the TGI (786-0 renal)?
A: 12.7 µM

Q: What about the GI50 (A498 renal) of the same compound?
A: 2.48 µM

Q: And the TGI (A498 renal)?
A: 15 µM

Q: What about the GI50 (A549 NSCLC) of the same compound?
A: 6.04 µM

Q: What about the TGI (A549 NSCLC) of the same compound?
A: 18.5 µM

Q: And the GI50 (ACHN renal)?
A: 4.17 µM

Q: What about the TGI (ACHN renal) of the same compound?
A: 15.8 µM

Q: What about the GI50 (BT-549 breast) of the same compound?
A: 2.49 µM

Q: And the TGI (BT-549 breast)?
A: 12.8 µM

Q: What about the GI50 (CAKI-1 renal) of the same compound?
A: 1.65 µM

Q: What about the TGI (CAKI-1 renal) of the same compound?
A: 10.9 µM

Q: And the GI50 (CCRF-CEM leukemia)?
A: 2.16 µM

Q: What about the TGI (CCRF-CEM leukemia) of the same compound?
A: 4.68 µM

Q: What about the GI50 (COLO 205 colon) of the same compound?
A: 7.16 µM

Q: And the TGI (COLO 205 colon)?
A: 19.4 µM

Q: And the GI50 (DU-145 prostate)?
A: 7.2 µM

Q: And the TGI (DU-145 prostate)?
A: 19.5 µM

Q: And the GI50 (EKVX NSCLC)?
A: 5.43 µM

Q: What about the TGI (EKVX NSCLC) of the same compound?
A: 17.5 µM

Q: What about the GI50 (HCC-2998 colon) of the same compound?
A: 3.01 µM

Q: And the TGI (HCC-2998 colon)?
A: 10.5 µM

Q: And the GI50 (HCT-116 colon)?
A: 2.86 µM

Q: And the TGI (HCT-116 colon)?
A: 8.34 µM

Q: And the GI50 (HCT-15 colon)?
A: 3.02 µM

Q: What about the TGI (HCT-15 colon) of the same compound?
A: 11.6 µM

Q: What about the GI50 (HL-60(TB) leukemia) of the same compound?
A: 1.78 µM

Q: And the TGI (HL-60(TB) leukemia)?
A: 3.19 µM

Q: What about the GI50 (HOP-62 NSCLC) of the same compound?
A: 6.07 µM

Q: What about the TGI (HOP-62 NSCLC) of the same compound?
A: 18.2 µM

Q: And the GI50 (HOP-92 NSCLC)?
A: 7.76 µM

Q: And the TGI (HOP-92 NSCLC)?
A: 20.1 µM

Q: What about the GI50 (HS 578T breast) of the same compound?
A: 2.28 µM

Q: What about the TGI (HS 578T breast) of the same compound?
A: 9.13 µM

Q: What about the GI50 (HT29 colon) of the same compound?
A: 1.6 µM

Q: And the TGI (HT29 colon)?
A: 3.46 µM

Q: And the GI50 (IGROV1 ovarian)?
A: 3.56 µM

Q: What about the TGI (IGROV1 ovarian) of the same compound?
A: 16 µM

Q: What about the GI50 (K-562 leukemia) of the same compound?
A: 2.56 µM

Q: And the TGI (K-562 leukemia)?
A: 6.17 µM

Q: And the GI50 (KM12 colon)?
A: 5.32 µM

Q: And the TGI (KM12 colon)?
A: 17.3 µM

Q: What about the GI50 (LOX IMVI melanoma) of the same compound?
A: 2.46 µM

Q: And the TGI (LOX IMVI melanoma)?
A: 6.58 µM

Q: And the GI50 (M14 melanoma)?
A: 1.9 µM

Q: And the TGI (M14 melanoma)?
A: 3.82 µM

Q: And the GI50 (MALME-3M melanoma)?
A: 1.88 µM

Q: What about the TGI (MALME-3M melanoma) of the same compound?
A: 3.35 µM

Q: And the GI50 (MCF7 breast)?
A: 4.04 µM

Q: And the TGI (MCF7 breast)?
A: 16.2 µM

Q: And the GI50 (MDA-MB-231 breast)?
A: 9.09 µM

Q: What about the TGI (MDA-MB-231 breast) of the same compound?
A: 21.1 µM

Q: And the GI50 (MDA-MB-435 melanoma)?
A: 10.9 µM

Q: What about the TGI (MDA-MB-435 melanoma) of the same compound?
A: 23 µM

Q: What about the GI50 (MDA-MB-468 breast) of the same compound?
A: 3.81 µM

Q: And the TGI (MDA-MB-468 breast)?
A: 10.1 µM

Q: And the GI50 (MOLT-4 leukemia)?
A: 1.64 µM

Q: And the TGI (MOLT-4 leukemia)?
A: 3.26 µM

Q: And the GI50 (NCI-H226 lung)?
A: 0.0358 µM

Q: What about the TGI (NCI-H226 lung) of the same compound?
A: 17.6 µM

Q: And the GI50 (NCI-H23 lung)?
A: 10.9 µM

Q: And the TGI (NCI-H23 lung)?
A: 22.9 µM

Q: What about the GI50 (NCI-H322M lung) of the same compound?
A: 6.37 µM

Q: What about the TGI (NCI-H322M lung) of the same compound?
A: 19.4 µM

Q: And the GI50 (NCI-H460 NSCLC)?
A: 3.57 µM

Q: What about the TGI (NCI-H460 NSCLC) of the same compound?
A: 12.6 µM

Q: And the GI50 (NCI-H522 lung)?
A: 10.1 µM

Q: What about the TGI (NCI-H522 lung) of the same compound?
A: 21.7 µM

Q: What about the GI50 (NCI/ADR-RES ovarian) of the same compound?
A: 5.26 µM

Q: And the TGI (NCI/ADR-RES ovarian)?
A: 17.2 µM

Q: What about the GI50 (OVCAR-3 ovarian) of the same compound?
A: 4.05 µM

Q: What about the TGI (OVCAR-3 ovarian) of the same compound?
A: 14.5 µM

Q: And the GI50 (OVCAR-4 ovarian)?
A: 13.6 µM

Q: And the TGI (OVCAR-4 ovarian)?
A: 26.6 µM

Q: And the GI50 (OVCAR-5 ovarian)?
A: 9.74 µM

Q: What about the TGI (OVCAR-5 ovarian) of the same compound?
A: 21.6 µM

Q: What about the GI50 (OVCAR-8 ovarian) of the same compound?
A: 5.32 µM

Q: What about the TGI (OVCAR-8 ovarian) of the same compound?
A: 17.5 µM

Q: What about the GI50 (PC-3 prostate) of the same compound?
A: 7.34 µM

Q: And the TGI (PC-3 prostate)?
A: 19.6 µM

Q: What about the GI50 (RPMI-8226 leukemia) of the same compound?
A: 4.31 µM

Q: What about the TGI (RPMI-8226 leukemia) of the same compound?
A: 14.3 µM

Q: What about the GI50 (RXF 393 renal) of the same compound?
A: 1.73 µM

Q: And the TGI (RXF 393 renal)?
A: 5.85 µM

Q: And the GI50 (SF-268 CNS)?
A: 1.53 µM

Q: What about the TGI (SF-268 CNS) of the same compound?
A: 4.77 µM

Q: What about the GI50 (SF-295 CNS) of the same compound?
A: 12.7 µM

Q: And the TGI (SF-295 CNS)?
A: 25.5 µM

Q: What about the GI50 (SF-539 CNS) of the same compound?
A: 2.22 µM

Q: What about the TGI (SF-539 CNS) of the same compound?
A: 8.59 µM

Q: And the GI50 (SK-MEL-28 melanoma)?
A: 3.23 µM

Q: And the TGI (SK-MEL-28 melanoma)?
A: 8.34 µM

Q: What about the GI50 (SK-MEL-5 melanoma) of the same compound?
A: 1.92 µM

Q: And the TGI (SK-MEL-5 melanoma)?
A: 4.48 µM

Q: And the GI50 (SK-OV-3 ovarian)?
A: 3.77 µM

Q: What about the TGI (SK-OV-3 ovarian) of the same compound?
A: 14 µM

Q: And the GI50 (SN12C renal)?
A: 4.16 µM

Q: What about the TGI (SN12C renal) of the same compound?
A: 15 µM

Q: And the GI50 (SNB-19 CNS)?
A: 13.6 µM

Q: And the TGI (SNB-19 CNS)?
A: 26.7 µM

Q: And the GI50 (SNB-75 CNS)?
A: 0.613 µM

Q: What about the TGI (SNB-75 CNS) of the same compound?
A: 13.8 µM

Q: What about the GI50 (SW-620 colon) of the same compound?
A: 11.3 µM

Q: And the TGI (SW-620 colon)?
A: 23.4 µM

Q: And the GI50 (T-47D breast)?
A: 2.82 µM

Q: And the TGI (T-47D breast)?
A: 8.19 µM

Q: And the GI50 (TK-10 renal)?
A: 10.6 µM

Q: What about the TGI (TK-10 renal) of the same compound?
A: 22.7 µM

Q: And the GI50 (U251 glioblastoma)?
A: 3.84 µM

Q: And the TGI (U251 glioblastoma)?
A: 12.6 µM

Q: What about the GI50 (UACC-257 melanoma) of the same compound?
A: 1.98 µM

Q: And the TGI (UACC-257 melanoma)?
A: 3.41 µM

Q: And the GI50 (UACC-62 melanoma)?
A: 5.33 µM

Q: What about the TGI (UACC-62 melanoma) of the same compound?
A: 17 µM

Q: What about the GI50 (UO-31 renal) of the same compound?
A: 8.38 µM

Q: And the TGI (UO-31 renal)?
A: 20.7 µM
